Data published in article PMC8648984 (Angewandte Chemie (International ed. in English), 2021).
≈ marks a conversion by molar mass, not a printed value. Where “and” joins values, the source holds several entries; their conditions need not be identical. Equal values may be shown once. Read-outs that look alike come from different tables or passages of the source.

Tests used:
[1] = Metabolic stability in mouse liver microsomes; format: in vitro ADME
Caco-2 cell permeability = format: in vitro ADME, human; conditions: human, Caco-2
[2] = Chemical stability in MV4–11 cell culture media; conditions: for half-life: MV4-11 cell culture media, pH 7.4; for t1/2 MV4–11 cell media: pH 7.4, LCMS over 24 hours
[3] = Metabolic stability in human liver microsomes; format: in vitro ADME
[4] = cited from earlier work
[5] = Chemical stability in HD-MB03 cell culture media; format: physicochemical; conditions: for half-life: HD-MB03 cell culture media, pH 7.7; for t1/2 HD-MB03 cell media: cell media pH 7.7
[6] = Stability in phosphate-buffered saline; format: physicochemical
Aqueous solubility = format: physicochemical; conditions: for solubility: aqueous medium (not further specified)
[7] = system: CaCo2 human colon adenocarcinoma cell line; test: Caco-2 cell permeability; format: in vitro ADME
HD-MB03 cells = test: HD-MB03 cell viability; format: cell-based, human; conditions: read-out: HD-MB03 IC50
MV4–11 cells = test: MV4–11 cell viability; format: cell-based, human; conditions: read-out: MV4–11 IC50; 3 days incubation, CellTiter-Glo
CRBN = CRBN (Homo sapiens, UniProt Q96SW2); test: CRBN fluorescence polarization assay; format: binding; conditions: for LE (ligand efficiency): from CRBN affinity; for IC50: read-out: CRBN IC50, fluorescence polarization, Cy5-conjugated lenalidomide probe
IKZF1 and CK1α = test: Degradation of classical IMiD neosubstrates; format: cell-based
BRD2 = BRD2 (Homo sapiens, UniProt P25440); test: BRD2 protein degradation in MV4–11 cells; format: cell-based; conditions: 100 nM, 4-hour incubation
Plasma stability = format: in vitro ADME
[8] = Chiral stability in cell media; format: physicochemical; conditions: 24 hours, 37°C
[9] = 3 days incubation, CellTiter-Glo

Chain of CRBN (Q96SW2 whole entry, species assumed): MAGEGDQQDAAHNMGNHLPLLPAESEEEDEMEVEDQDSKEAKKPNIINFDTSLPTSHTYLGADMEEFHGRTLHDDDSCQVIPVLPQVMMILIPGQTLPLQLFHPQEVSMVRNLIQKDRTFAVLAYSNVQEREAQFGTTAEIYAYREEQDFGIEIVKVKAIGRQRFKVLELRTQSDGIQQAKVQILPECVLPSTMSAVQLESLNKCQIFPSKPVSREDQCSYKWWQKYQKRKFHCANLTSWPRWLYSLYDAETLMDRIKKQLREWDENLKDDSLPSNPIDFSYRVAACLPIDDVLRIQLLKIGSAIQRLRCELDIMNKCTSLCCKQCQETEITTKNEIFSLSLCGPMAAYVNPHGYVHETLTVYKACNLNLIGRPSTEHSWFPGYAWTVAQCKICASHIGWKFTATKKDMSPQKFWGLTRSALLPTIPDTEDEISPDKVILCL
Chain of BRD2 (P25440 whole entry): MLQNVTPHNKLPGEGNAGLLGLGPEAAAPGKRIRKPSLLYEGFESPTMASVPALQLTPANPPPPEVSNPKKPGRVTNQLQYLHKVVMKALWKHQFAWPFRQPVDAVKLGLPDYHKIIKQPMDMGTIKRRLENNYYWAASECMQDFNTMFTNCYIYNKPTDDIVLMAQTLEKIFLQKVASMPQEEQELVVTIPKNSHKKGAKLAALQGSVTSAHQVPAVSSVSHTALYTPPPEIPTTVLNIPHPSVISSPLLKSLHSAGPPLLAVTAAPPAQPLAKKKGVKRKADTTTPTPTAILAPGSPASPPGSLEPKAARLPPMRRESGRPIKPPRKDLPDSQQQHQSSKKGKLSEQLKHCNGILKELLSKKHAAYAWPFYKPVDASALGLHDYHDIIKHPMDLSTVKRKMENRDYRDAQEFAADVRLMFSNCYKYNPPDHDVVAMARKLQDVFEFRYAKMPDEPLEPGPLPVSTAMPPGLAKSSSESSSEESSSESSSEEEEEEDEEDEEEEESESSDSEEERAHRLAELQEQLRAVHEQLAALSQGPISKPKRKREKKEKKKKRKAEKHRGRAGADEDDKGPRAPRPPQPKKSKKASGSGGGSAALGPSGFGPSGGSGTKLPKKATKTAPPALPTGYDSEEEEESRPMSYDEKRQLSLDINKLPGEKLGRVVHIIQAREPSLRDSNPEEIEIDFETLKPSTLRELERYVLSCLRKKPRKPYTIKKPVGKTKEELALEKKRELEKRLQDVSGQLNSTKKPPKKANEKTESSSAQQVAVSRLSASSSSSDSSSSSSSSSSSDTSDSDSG

Structure (SMILES)	half-life ([1]; liver microsomes)	Papp (Caco-2 cell permeability)	half-life [2]	half-life ([3]; liver microsomes)	half-life [5]	half-life [6]	CaCo2 Papp [7]	IC50 (HD-MB03 cells; [9])	t1/2 MV4–11 cell media ([2]; 37°C)	IC50 (MV4–11 cells)	Sol. (aqueous solubility) (Aqueous solubility)	t1/2 HD-MB03 cell media [5]	t1/2 PBS [6]	IC50 (CRBN)	other results
O=C1CCC(N2C(=O)c3ccccc3C2=O)C(=O)N1 (centres unmarked) [1a, thalidomide]	3.99 ± 0.01 h	34.9 ± 1.46 ×10⁻⁶ cm/s	3.3 ± 0.4 h	4.55 ± 0.61 h	1.8 ± 0.1 h	5.4 ± 0.2 h	–	–	–	–	–	–	–	–	percentage remaining ([2]; MV4–11 cell media, after 6 hours, 37°C): 20%; level remaining ([2]; MV4–11 cell media, at 24 hours, 37°C): below limits of detection; half-life to hydrolysis ([4]; pH 7): 11 h; half-life to hydrolysis ([4]; pH 7.4): 5 h; half-life to hydrolysis ([4]; pH 8): 1.25 h
Nc1cccc2c1CN(C1CCC(=O)NC1=O)C2=O (centres unmarked) [1b, lenalidomide]	> 24 h	4 ± 1.02 ×10⁻⁶ cm/s	11.7 h	> 24 h	7.6 ± 0.6 h	33.6 ± 2.5 h	–	–	–	–	–	–	–	–	solubility (Aqueous solubility): 111 ± 6.2 µM (≈ 28.7 µg/mL)
Nc1cccc2c1C(=O)N(C1CCC(=O)NC1=O)C2=O (centres unmarked) [1c, pomalidomide]	7.8 ± 0.69 h	36 ± 1.39 ×10⁻⁶ cm/s	12.2 ± 0.5 h	> 24 h	5.4 ± 0.7 h	32.5 ± 1 h	–	–	–	–	–	–	–	–	solubility (Aqueous solubility): 84.6 ± 2.3 µM (≈ 23.1 µg/mL)
O=C1CCC(c2ccccc2)C(=O)N1 (centres unmarked) [2a, phenyl glutarimide]	–	–	–	–	–	–	21.55 ± 6.54 ×10⁻⁶ cm/s	> 7 µM	>24 h	> 7 µM	76.2 ± 0.1 µM	20.8 ± 0.8 h	>48 h	–	t1/2 mLM ([1]; liver microsomes): >24 h; t1/2 hLM ([3]; liver microsomes): >24 h
COc1ccc(C2CCC(=O)NC2=O)cc1 (centres unmarked) [2b]	–	–	–	–	–	–	81.8 ± 25.14 ×10⁻⁶ cm/s	–	>24 h	–	89.0 ± 1.8 µM	19.7 ± 0.1 h	>48 h	3.15 µM and 3.16 µM	t1/2 hLM ([3]; microsomes): >24 h; LE (ligand efficiency) (CRBN): 0.48
Nc1ccc(C2CCC(=O)NC2=O)cc1 (centres unmarked) [2c]	–	–	–	–	–	–	15.72 ± 0.94 ×10⁻⁶ cm/s	–	>24 h	–	148.5 ± 4.7 µM	16.4 ± 0.3 h	>48 h	0.123 ± 0.066 µM	t1/2 mLM ([1]; microsomes): 23.19 ± 1.63 h; t1/2 hLM ([3]; microsomes): 15.66 ± 4.78 h; LE (ligand efficiency) (CRBN): 0.64
Cc1sc2c(c1C)C(c1ccc(Cl)cc1)=N[C@@H](CC(=O)NCCCCNC(=O)COc1cccc3c1C(=O)N(C1CCC(=O)NC1=O)C3=O)c1nnc(C)n1-2 (some centres unmarked) [4a]	–	–	–	–	–	–	1.16 ± 0.47 ×10⁻⁶ cm/s	1.24 µM	4.2 ± 0.8 h	0.0061 ± 0.00156 µM	53.5 ± 0.3 µM	2.1 ± 0.3 h	12.3 ± 0.6 h	–	degradation of IMiD neosubstrates IKZF1 and CK1α (IKZF1 and CK1α): Neither of the two PROTACs degraded classical IMiD neosubstrates; t1/2 mLM ([1]; microsomes): 0.13 ± 0.01 h; IC50 (HD-MB03 cells; 7 days incubation): > 4 µM; depletion of BRD2 protein (BRD2): > 90%; plasma stability t1/2 (Plasma stability): 3.27 ± 0.25 h
COc1ccc([C@H]2CCC(=O)NC2=O)cc1 [(R)-2b]	–	–	–	–	–	–	–	–	–	–	–	–	–	1.41 µM	chiral inversion ([8]; HD-MB03 cell media): 21%; chiral inversion ([8]; MV4–11 cell media): 10%
COc1ccc([C@@H]2CCC(=O)NC2=O)cc1 [(S)-2b]	–	–	–	–	–	–	–	–	–	–	–	–	–	> 25 µM	chiral inversion ([8]; HD-MB03 cell media): 24%; chiral inversion ([8]; MV4–11 cell media): 13%
Cc1sc2c(c1C)C(c1ccc(Cl)cc1)=N[C@@H](CC(=O)OC(C)(C)C)c1nnc(C)n1-2 [JQ1]	–	–	–	–	–	–	–	0.265 ± 0.0626 µM	–	0.083 ± 0.0103 µM	–	–	–	–	–
